A short description of data set [1]: luciferase reporter signal suppression in cells – H4 neuroglioma cells, luminescence, dose response (AID 1990). The class given is functional, cell-based. On the technique in general: Reporter assays use an easily measured gene product as a stand-in for the process of interest.
Data set [2] deals with BJ. Kind of data set: BJ-TERT fibroblast viability loss – cell-based, RAS-independent, luminescence, dose response (AID 1933). The class given is functional. The note with it: Homo sapiens.
Data set [3] in a line: Luminescence Cell-Based Dose Response HTS to Identify Inhibitors of 5'UTR Stem-Loop Driven Prion Protein mRNA Translation in H4 Neuroglioblastoma Cells. [Related pubchem assays: 1827 (Project Summary), 1813 (Primary HTS)]. It counts as functional.
A short description of data set [4]: alpha-synuclein stem-loop luciferase translation blockers – H4 neuroglioma cells, luminescence, confirmation (AID 1988). It counts as functional, cell-based.
For data set [5], the system named is BJ. The data set can be described thus: cells. The class given is functional, cell-based. The note with it: Homo sapiens.
The subject of data set [6] is BJ. The data set can be described thus: BJ-TERT-LT-ST fibroblast viability loss – cell-based, RAS-independent, luminescence, dose response (AID 1935).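 Further: BJ fibroblasts immortalized with TERT plus LT and ST oncogenes.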 The settings on record: Homo sapiens. It counts as functional.
Data set [7] is described as follows: DRD fibroblast viability loss – cell-based, non-viral oncogenic, luminescence, dose response (AID 1934). The class given is functional. The settings on record: Homo sapiens.
Data set [8] deals with T1, Replicative DNA helicase DnaB (Mycobacterium tuberculosis, UniProt P9WMR3).
T1 sequence (P9WMR3 whole entry): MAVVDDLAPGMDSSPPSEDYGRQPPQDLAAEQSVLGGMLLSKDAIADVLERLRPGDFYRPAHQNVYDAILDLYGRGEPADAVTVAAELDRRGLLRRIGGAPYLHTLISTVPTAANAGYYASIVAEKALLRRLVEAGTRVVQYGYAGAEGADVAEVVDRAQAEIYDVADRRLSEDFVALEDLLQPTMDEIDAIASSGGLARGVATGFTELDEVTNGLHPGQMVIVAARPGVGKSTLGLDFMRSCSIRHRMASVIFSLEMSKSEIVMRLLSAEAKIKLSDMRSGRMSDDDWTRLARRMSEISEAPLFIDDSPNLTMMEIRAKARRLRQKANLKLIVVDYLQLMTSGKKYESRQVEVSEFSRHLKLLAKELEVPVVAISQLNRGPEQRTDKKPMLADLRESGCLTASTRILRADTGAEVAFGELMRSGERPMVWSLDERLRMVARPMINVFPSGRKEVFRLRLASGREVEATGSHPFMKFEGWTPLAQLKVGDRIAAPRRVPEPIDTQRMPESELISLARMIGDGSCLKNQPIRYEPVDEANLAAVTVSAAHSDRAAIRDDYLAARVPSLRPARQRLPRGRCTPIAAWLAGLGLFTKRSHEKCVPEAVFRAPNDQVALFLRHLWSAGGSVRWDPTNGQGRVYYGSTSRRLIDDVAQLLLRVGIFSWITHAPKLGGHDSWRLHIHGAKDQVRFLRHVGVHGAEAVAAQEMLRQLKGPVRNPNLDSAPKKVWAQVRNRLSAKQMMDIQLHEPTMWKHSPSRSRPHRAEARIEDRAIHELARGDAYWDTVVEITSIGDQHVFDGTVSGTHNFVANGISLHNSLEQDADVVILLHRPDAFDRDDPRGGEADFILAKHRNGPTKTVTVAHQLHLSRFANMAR
Kind of data set: DnaB intein splicing inhibitors, dose response, biochemical, cell-free fluorescence (AID 449749). It counts as functional.

Data set [9] relates to BJ. The data set can be described thus: growth inhibition of engineered Ras-driven BJ cells – cell-based, alamar blue fluorescence, cherrypicked samples, dose response (AID 2631).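 Further: confirmatory dose-response assay in RAS-dependent BJ fibroblasts engineered with TERT, LT and ST, with cytotoxicity read by fluorescence.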 The class given is functional. The settings on record: Homo sapiens.
Data set [10] has as its target T2, Protein RecA (Mycobacterium tuberculosis, UniProt P9WHJ3).
T2 sequence (P9WHJ3 whole entry): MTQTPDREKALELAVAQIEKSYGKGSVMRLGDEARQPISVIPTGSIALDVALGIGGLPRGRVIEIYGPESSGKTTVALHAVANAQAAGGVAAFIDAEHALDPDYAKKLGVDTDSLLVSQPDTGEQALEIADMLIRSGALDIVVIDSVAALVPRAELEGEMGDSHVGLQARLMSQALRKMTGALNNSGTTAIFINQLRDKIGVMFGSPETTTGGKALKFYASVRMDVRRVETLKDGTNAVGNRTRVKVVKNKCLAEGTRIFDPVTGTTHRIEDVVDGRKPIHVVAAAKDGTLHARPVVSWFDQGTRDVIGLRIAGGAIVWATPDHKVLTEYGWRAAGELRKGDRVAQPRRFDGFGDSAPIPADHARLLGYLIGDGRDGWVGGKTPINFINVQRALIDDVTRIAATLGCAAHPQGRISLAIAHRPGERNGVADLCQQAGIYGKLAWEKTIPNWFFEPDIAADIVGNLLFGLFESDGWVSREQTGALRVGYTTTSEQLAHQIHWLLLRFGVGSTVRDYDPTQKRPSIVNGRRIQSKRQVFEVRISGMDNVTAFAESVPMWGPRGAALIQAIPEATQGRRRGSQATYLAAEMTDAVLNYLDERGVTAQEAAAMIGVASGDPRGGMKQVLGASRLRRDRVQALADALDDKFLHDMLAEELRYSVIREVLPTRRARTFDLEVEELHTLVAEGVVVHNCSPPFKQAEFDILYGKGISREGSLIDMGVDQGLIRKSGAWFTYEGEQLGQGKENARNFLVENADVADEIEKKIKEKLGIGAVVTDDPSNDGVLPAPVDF
Kind of data set: Fluorescence Cell-Free Homogeneous Dose Retest to Identify Inhibitors of RecA-Intein Splicing Activity. [Related pubchem assays (depositor defined):AID2097, AID2223, AID489010, AID492950]. The class given is functional.

Data set [11] concerns INS1. The data set can be described thus: INS-1E survival protection against cytokine death – cell-based, luminescence, retest, dose response (AID 449756).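 Further: cell death triggered by IL-1 beta plus TNF-alpha plus IFN-gamma mixture; protective hits raise ATP signal compared with cytokine alone wells.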 The class given is functional. The settings on record: Rattus norvegicus.
Data set [12] can be described thus: reduction of Shn3 3'UTR-driven luciferase in osteoblasts – cell-based, Clone20 osteoblasts, firefly luciferase, cherry-picked, dose response (AID 624132).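 Further: firefly luciferase luminescence from reporter carrying the Shn3 3'UTR in osteoblasts.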 The class given is functional.
Data set [13] is described as follows: loss of viability in HepG2 cells – cell-based, CellTiter-Glo, cherry-picked, cytotoxicity control for Shn3 inhibitor project, dose response (AID 624134). It counts as functional. A general note: Cellular ATP, detected with luciferase, serves as a proxy for viable cell number.
Data set [14] in a line: non-specific 3'UTR reporter inhibition in Clone20-Shn3RL – cell-based, Renilla luciferase, cherry-picked, counter-screen for Shn3 inhibitor project, dose response (AID 624133). It counts as functional. For orientation: Counterscreens check selectivity or assay interference.
The nature of data set [15]: Fluorescence-based cell-based high throughput dose response assay for inhibitors of the interaction of nucleotide-binding oligomerization domain containing 2 (NOD2) and the receptor-interacting serine-threonine kinase 2 (RIPK2). The class given is functional. The settings on record: Homo sapiens.
In data set [16] the target is T3, Caspase-6 (Homo sapiens, UniProt P55212).
T3 sequence (P55212 whole entry): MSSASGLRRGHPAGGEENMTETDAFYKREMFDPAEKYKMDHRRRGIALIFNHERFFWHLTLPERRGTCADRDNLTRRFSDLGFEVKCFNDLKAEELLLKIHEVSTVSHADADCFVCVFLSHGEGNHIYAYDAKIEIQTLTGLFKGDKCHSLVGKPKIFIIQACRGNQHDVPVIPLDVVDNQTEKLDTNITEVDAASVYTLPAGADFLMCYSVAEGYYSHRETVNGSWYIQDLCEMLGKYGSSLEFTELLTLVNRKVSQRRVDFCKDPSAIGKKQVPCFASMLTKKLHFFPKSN
The data set can be described thus: inhibition of CASP6 peptide cleavage – biochemical, VEID-R110 fluorescence, cherry-pick, dose response (AID 720632).

Data set [17] relates to Vero. The data set can be described thus: viability of Vero cells under compound – cytotoxicity control for flavivirus capping enzyme inhibitors (AID 588742). It counts as functional. The settings on record: Chlorocebus sabaeus.
Data set [18] has as its target Genome polyprotein (dengue virus type 2, UniProt P29990). Kind of data set: flavivirus cap methylation enzyme inhibition – biochemical, confirmation dose response, primary screen (AID 588689). The class given is functional.
For data set [19], the target named is Cytochrome P450 2C19 (Homo sapiens, UniProt P33261). Kind of data set: Cytochrome panel assay with activity outcomes. Panel member name: p450-cyp2c19 Compounds with AC50 equal or less than 10 uM are considered active. The class given is functional. The note with it: read-out: AC50.
A short description of data set [20]: viability loss in Vero cells – cytotoxicity control for Vif-APOBEC3G degradation inhibitor project, dose response (AID 1117358). It counts as functional. The settings on record: Vero.
Data set [21] has as its target T4, Cytochrome P450 1A2 (Homo sapiens, UniProt P05177).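 Further: PubChem cytochrome P450 panel assay, CYP1A2 panel member.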
T4 sequence (P05177 whole entry): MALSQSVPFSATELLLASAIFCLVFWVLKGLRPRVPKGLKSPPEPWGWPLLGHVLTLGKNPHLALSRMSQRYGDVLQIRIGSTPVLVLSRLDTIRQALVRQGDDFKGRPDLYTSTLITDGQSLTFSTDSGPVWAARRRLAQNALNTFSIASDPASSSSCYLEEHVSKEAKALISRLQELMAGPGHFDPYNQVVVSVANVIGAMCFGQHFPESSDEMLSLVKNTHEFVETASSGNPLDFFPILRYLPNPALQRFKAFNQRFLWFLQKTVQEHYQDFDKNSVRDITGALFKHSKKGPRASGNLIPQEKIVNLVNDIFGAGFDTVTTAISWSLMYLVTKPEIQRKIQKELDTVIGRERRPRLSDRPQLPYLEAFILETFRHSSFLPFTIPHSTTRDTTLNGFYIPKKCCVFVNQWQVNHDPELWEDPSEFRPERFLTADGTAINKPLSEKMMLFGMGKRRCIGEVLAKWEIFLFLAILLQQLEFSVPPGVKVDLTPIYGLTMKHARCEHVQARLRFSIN

Data set [22] deals with Cytochrome P450 2C9 (Homo sapiens, UniProt P11712).

These results are taken from ChEMBL document CHEMBL1201862, “PubChem BioAssay data set” (2004).

The source made the active and inactive calls.

Broadly, the EC50 is the concentration that produces a half-maximal response. Broadly, the AC50 is the concentration giving half of the maximal activity seen. Usually IC50 stands for the concentration that inhibits the measured activity by half. Broadly, the CC50 is the concentration that lowers cell viability or growth by half.

Cytochrome P450 2C9, sequence (P11712 whole entry): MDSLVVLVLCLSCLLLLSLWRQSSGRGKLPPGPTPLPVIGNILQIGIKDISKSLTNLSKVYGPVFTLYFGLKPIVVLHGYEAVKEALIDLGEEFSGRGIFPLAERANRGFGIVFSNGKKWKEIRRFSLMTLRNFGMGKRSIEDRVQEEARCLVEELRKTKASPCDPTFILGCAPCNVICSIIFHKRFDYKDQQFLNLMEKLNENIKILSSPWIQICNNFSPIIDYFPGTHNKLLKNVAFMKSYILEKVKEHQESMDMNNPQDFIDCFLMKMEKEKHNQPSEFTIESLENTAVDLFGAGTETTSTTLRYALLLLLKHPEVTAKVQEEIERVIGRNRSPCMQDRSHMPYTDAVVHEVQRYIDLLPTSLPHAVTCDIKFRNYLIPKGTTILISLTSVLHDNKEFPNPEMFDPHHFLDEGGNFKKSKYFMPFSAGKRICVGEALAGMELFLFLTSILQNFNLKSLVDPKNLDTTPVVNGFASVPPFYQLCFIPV
Genome polyprotein, sequence (P29990 2492-3391 limits assumed): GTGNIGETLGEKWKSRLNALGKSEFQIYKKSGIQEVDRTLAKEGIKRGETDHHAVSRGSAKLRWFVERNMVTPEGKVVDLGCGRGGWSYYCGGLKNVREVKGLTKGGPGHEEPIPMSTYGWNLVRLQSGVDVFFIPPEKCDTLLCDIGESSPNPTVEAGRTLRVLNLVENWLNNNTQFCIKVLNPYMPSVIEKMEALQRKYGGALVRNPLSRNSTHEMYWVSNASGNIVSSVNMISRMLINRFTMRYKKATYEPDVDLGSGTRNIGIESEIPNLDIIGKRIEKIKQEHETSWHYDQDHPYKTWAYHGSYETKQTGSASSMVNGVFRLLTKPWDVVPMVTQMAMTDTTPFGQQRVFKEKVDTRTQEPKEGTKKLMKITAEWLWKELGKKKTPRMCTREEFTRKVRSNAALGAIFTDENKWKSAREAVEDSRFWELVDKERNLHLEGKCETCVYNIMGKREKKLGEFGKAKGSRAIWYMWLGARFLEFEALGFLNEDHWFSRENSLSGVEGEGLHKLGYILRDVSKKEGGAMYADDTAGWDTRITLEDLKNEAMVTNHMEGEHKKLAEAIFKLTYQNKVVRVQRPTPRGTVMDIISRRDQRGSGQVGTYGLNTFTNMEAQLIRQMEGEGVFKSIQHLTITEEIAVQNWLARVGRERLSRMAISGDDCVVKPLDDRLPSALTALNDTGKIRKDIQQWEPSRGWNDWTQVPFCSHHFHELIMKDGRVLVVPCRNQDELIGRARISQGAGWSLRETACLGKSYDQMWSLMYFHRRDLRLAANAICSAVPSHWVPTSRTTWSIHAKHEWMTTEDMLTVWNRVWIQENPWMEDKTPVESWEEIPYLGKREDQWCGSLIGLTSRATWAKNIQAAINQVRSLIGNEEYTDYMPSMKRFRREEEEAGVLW
Cytochrome P450 2C19, sequence (P33261 whole entry): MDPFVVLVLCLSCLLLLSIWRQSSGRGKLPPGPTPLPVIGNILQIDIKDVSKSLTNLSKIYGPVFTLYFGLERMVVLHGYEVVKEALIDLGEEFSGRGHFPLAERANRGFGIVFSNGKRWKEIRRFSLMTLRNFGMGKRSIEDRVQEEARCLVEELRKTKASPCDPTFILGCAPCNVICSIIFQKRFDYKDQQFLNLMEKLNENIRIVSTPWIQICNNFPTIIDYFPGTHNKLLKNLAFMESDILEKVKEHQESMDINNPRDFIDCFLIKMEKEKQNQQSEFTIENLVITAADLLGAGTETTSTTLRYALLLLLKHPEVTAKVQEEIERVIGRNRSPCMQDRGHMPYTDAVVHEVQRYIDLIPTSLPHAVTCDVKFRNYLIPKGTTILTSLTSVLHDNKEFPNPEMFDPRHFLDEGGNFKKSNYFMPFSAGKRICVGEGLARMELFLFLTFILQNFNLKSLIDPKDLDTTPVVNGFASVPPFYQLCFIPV

Turning to `O=C(Nc1ccc2nc3n(c(=O)c2c1)CCCCC3)c1c(F)ccc([N+](=O)[O-])c1F`, the EC50 in data set [1] was > 120 µM (not active); in data set [2], 17.7 µM (active); in data set [3] it was > 120 µM (not active); in data set [4], > 120 µM (not active); in data set [5], > 150 µM (inconclusive); in data set [6], 50.7 µM (inconclusive). Further, the values for the EC50 in [7], in data set [9] and in data set [10] were 4.04 µM (inconclusive), 0.571 µM (active) and 5.17 µM (active), respectively. Besides, the AC50 in [8] was 14.8 µM (active); in data set [11], 6.28 µM (active); in data set [12], 2.3 µM (active); in data set [13], 12.5 µM (active); in [14], 4.65 µM (active); in data set [16], 4.39 µM (active). In [15], the IC50 is 8.8 µM (active).

Consider `CC(=O)N1CCc2c(sc(NC(=O)c3ccc([N+](=O)[O-])o3)c2C(N)=O)C1`, for which the CC50 in [17] is 4.1 µM (active). The IC50 in [18] was 89.3 µM (active). Besides, the AC50 in data set [12] was 1.85 µM (active); in data set [13] it was 20 µM (active); in data set [14], 13.1 µM (active); in data set [16] it was 12.7 µM (active).

Regarding `O=C(NNC(=O)c1ccccc1-n1cccc1)c1ccc(Cl)c(Cl)c1`, the figures for the AC50 in [19], in data set [21] and in [22] were 3.98 µM (inconclusive), 25.1 µM (inconclusive) and “inconclusive”, respectively. Also, the CC50 in data set [20] was > 40 µM (active).
